Assay results reported in patent US20100292205A1, “Pyrimidone Compounds As GSK-3 Inhibitors” (PFIZER INC., priority 2006, published 2010).

Target: T1, Recombinant human GSK3β (Homo sapiens, UniProt P49841)
T1 construct: His-tag; made in house; host or cells: Sf9 insect cells / baculovirus
Assay: GSK-3β (Glycogen Synthase Kinase) cell free enzyme assay
Type: biochemical
Conditions: 1 μM; Examples 157-199
In short: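 Recombinant human GSK3β, expressed in SF9/baculovirus cells and His-tag purified on Ni-NTA Superflow, was preincubated with test agent for 30 minutes at room temperature. Substrate mix was then added to start the reaction in 8 mM MOPS (pH 7.0), 10 mM magnesium acetate, 0.2 mM EDTA, 1 mM DTT, 2 uM cold ATP, 0.025 uCi/well [33P]ATP (120 uL) and 1.0 uM biotinylated peptide. Reactions ran at RT for 60 min.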

T1 sequence (P49841 whole entry): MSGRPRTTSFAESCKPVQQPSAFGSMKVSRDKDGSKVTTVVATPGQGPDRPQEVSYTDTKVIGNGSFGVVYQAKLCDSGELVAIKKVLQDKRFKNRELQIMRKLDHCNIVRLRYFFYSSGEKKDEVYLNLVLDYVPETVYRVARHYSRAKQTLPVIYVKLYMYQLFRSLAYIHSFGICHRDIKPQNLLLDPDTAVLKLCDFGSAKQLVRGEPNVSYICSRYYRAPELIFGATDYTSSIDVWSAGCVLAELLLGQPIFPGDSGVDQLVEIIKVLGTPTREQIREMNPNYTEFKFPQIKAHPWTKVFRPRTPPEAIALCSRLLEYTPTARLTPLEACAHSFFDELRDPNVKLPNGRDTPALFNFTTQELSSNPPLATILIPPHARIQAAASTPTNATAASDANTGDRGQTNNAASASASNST

SMILES | Percent inhibition at 1 μM [%]
CN(c1nc(-c2ccncc2)cc(=O)n1C)C1CCCN(S(=O)(=O)c2ccccc2)CC1 (stereo not shown) [Example 182, 3-Methyl-2-{methyl[1-(phenylsulfonyl)azepan-4-yl]amino}-6-pyridin-4-ylpyrimidin-4(3H)-one] | 96

Same assay, conditions: 1 μM; Examples 157-199; read-out: Percent inhibition at 1 μM

SMILES | inhibition at 1 µM [%]
Cn1c(NC2CCCN(S(=O)(=O)c3ccccc3)C2)nc(-c2ccncc2)cc1=O (stereo not shown) [Example 179, 3-Methy-2-{[1-(phenylsulfonyl)piperidin-3-yl]amino}-6-pyridin-4-ylpyrimidin-4(3H)-one] | 93
CN(c1nc(-c2ccncc2)cc(=O)n1C)C1CCN(S(=O)(=O)c2ccccc2)C1 (stereo not shown) [Example 180, 3-Methyl-2-{methyl[1-(phenylsulfonyl)pyrrolidin-3-yl]amino}-6-pyridin-4-ylpyrimidin-4(3H)-one] | 93
CN(c1nc(-c2ccncc2)cc(=O)n1C)C1CCCN(S(=O)(=O)c2ccccc2)CC1 (stereo not shown) [Example 181, 3-Methyl-2-{methyl[1-(phenylsulfonyl)azepan-4-yl]amino}-6-pyridin-4-ylpyrimidin-4(3H)-one] | 96
CN(c1nc(-c2ccncc2)cc(=O)n1C)[C@@H]1CC[C@H]2N(S(=O)(=O)c3ccccc3)CC[C@@]2(C)C1 [Example 183, 3-Methyl-2-{methyl[(3,aS5,R7,aR)-3a-methyl-1-(phenylsulfonyl)octahydro-1H-indol-5-yl]amino}-6-pyridin-4-ylpyrimidin-4(3H)-one] | 100
Cn1c(N[C@@H]2CN(S(=O)(=O)c3ccccc3)C[C@@H]2F)nc(-c2ccncc2)cc1=O [Example 184, 2-{[(3R,4S)-4-Fluoro-1-(phenylsulfonyl)pyrrolidin-3-yl]amino}-3-methyl-6-pyridin-4-ylpyrimidin-4(3H)-one] | 100
CCN(c1nc(-c2ccncc2)cc(=O)n1C)C1CCCN(S(=O)(=O)c2ccccc2)C1 (stereo not shown) [Example 185, 2-{Ethyl[1-(phenylsulfonyl)piperidin-3-yl]amino}-3-methyl-6-pyridin-4-ylpyrimidin-4(3H)-one] | 101
CCN(c1nc(-c2ccncc2)cc(=O)n1C)C1CCCN(S(=O)(=O)c2ccccc2)CC1 (stereo not shown) [Example 186, 2-{Ethyl[1-(phenylsulfonyl)azepan-4-yl]amino}-3-methyl-6-pyridin-4-ylpyrimidin-4(3H)-one] | 101
CCN(c1nc(-c2ccncc2)cc(=O)n1C)C1CCN(S(=O)(=O)c2ccccc2)CC1 [Example 187, 2-{Ethyl[1-(phenylsulfonyl)piperidin-4-yl]amino}-3-methyl-6-pyridin-4-ylpyrimidin-4(3H)-one] | 102
Cn1c(NC[C@H]2CCCN2S(=O)(=O)c2ccccc2)nc(-c2ccncc2)cc1=O [Example 188, 3-Methyl-2-({[(2R)-1-(phenylsulfonyl)pyrrolidin-2-yl]methyl}amino)-6-pyridin-4-ylpyrimidin-4(3H)-one] | 94
CCN(C[C@H]1CCCN1S(=O)(=O)c1ccccc1)c1nc(-c2ccncc2)cc(=O)n1C [Example 189, 2-(Ethyl{[(2R)-1-(phenylsulfonyl)pyrrolidin-2-yl]methyl}amino)-3-methyl-6-pyridin-4-ylpyrimidin-4(3H)-one] | 95
Cn1c(NCC2CN(S(=O)(=O)c3ccccc3)C2)nc(-c2ccncc2)cc1=O [Example 190, 3-Methyl-2-({[1-(phenylsulfonyl)azetidin-3-yl]methyl}amino)-6-pyridin-4-ylpyrimidin-4(3H)-one] | 35
Cn1c(NCC2CCN(S(=O)(=O)c3ccccc3)C2)nc(-c2ccncc2)cc1=O (stereo not shown) [Example 191, 3-Methyl-2-({[1-(phenylsulfonyl)pyrrolidin-3-yl]methyl}amino)-6-pyridin-4-ylpyrimidin-4(3H)-one] | 76
Cn1c(NC2CCCN(S(=O)(=O)Cc3ccccc3)CC2)nc(-c2ccncc2)cc1=O (stereo not shown) [Example 192, 2-{[1-(Benzylsulfonyl)azepan-4-yl]amino}-3-methyl-6-pyridin-4-ylpyrimidin-4(3H)-one] | 81
Cn1c(N2CC[C@@H]3CN(S(=O)(=O)Cc4ccccc4)C[C@@H]32)nc(-c2ccncc2)cc1=O [Example 193, 2-[(3a,R6,aR)-5-(Benzylsulfonyl)hexahydro-pyrrolo[34-b]pyrrol-1(2H)-yl]-3-methyl-6-pyridin-4-ylpyrimidin-4(3H)-one] | 80
CN(c1nc(-c2ccncc2)cc(=O)n1C)C1CCN(S(=O)(=O)Cc2ccccc2)C1 (stereo not shown) [Example 194, 2-{[1-(Benzylsulfonyl)pyrrolidin-3-yl](methyl)amino}-3-methyl-6-pyridin-4-ylpyrimidin-4(3H)-one] | 90
CN(c1nc(-c2ccncc2)cc(=O)n1C)[C@@H]1CC[C@H]2N(S(=O)(=O)Cc3ccccc3)CCC2(C)C1 (stereo partly drawn) [Example 195, 2-{[(3,aS5,R7,aR)-1-(Benzylsulfonyl)-3a-methyloctahydro-1H-indol-5-yl](methyl)amino}-3-methyl-6-pyridin-4-ylpyrimidin-4(3H)-one] | 92
CN(c1nc(-c2ccncc2)cc(=O)n1C)C1CCCN(S(=O)(=O)Cc2ccccc2)CC1 (stereo not shown) [Example 196, 2-{[1-(Benzylsulfonyl)azepan-4-yl](methyl)amino}-3-methyl-6-pyridin-4-ylpyrimidin-4(3H)-one] | 94
CCN(c1nc(-c2ccncc2)cc(=O)n1C)C1CCCN(S(=O)(=O)Cc2ccccc2)CC1 (stereo not shown) [Example 197, 2-{[1-(Benzylsulfonyl)azepan-4-yl](ethyl)amino}-3-methyl-6-pyridin-4-ylpyrimidin-4(3H)-one] | 93
CCN(c1nc(-c2ccncc2)cc(=O)n1C)C1CCN(S(=O)(=O)Cc2ccccc2)C1 (stereo not shown) [Example 198, 2-{[1-(Benzylsulfonyl)pyrrolidin-3-yl](ethyl)amino}-3-methyl-6-pyridin-4-ylpyrimidin-4(3H)-one] | 97
CCN(c1nc(-c2ccncc2)cc(=O)n1C)C1CCN(S(=O)(=O)Cc2ccccc2)CC1 [Example 199, 2-{[1-(Benzylsulfonyl)piperidin-4-yl](ethyl)amino}-3-methyl-6-pyridin-4-ylpyrimidin-4(3H)-one] | 89

Same assay, conditions: 1 μM; Examples 201-221

SMILES | Percent inhibition at 1 μM [%]
COC(=O)N1CCCC(N(C)c2nc(-c3ccncc3)cc(=O)n2C)CC1 (stereo not shown) [Example 214, Methyl 4-[methyl(1-methyl-6-oxo-4-pyridin-4-yl-16-dihydropyrimidin-2-yl)amino]azepane-1-carboxylate] | 99

Same assay, conditions: 1 μM; Examples 201-221; read-out: Percent inhibition at 1 μM

SMILES | inhibition at 1 µM [%]
COC(=O)N1C[C@H]2CCN(c3nc(-c4ccncc4)cc(=O)n3C)[C@H]2C1 [Example 203, Methyl (3a,R6,aR)-1-(1-methyl-6-oxo-4-pyridin-4-yl-16-dihydropyrimidin-2-yl)hexahydropyrrolo[34-b]pyrrole-5(1H)-carboxylate] | 32
COC(=O)N1CCC(Nc2nc(-c3ccncc3)cc(=O)n2C)C1 (stereo not shown) [Example 204, Methyl 3-[(1-methyl-6-oxo-4-pyridin-4-yl-16-dihydropyrimidin-2-yl)amino]pyrrolidine-1-carboxylate] | 82
COC(=O)N1CCCC(Nc2nc(-c3ccncc3)cc(=O)n2C)CC1 (stereo not shown) [Example 205, Methyl 4-[(1-methyl-6-oxo-4-pyridin-4-yl-16-dihydropyrimidin-2-yl)amino]azepane-1-carboxylate] | 86
COC(=O)N1CCCCC(Nc2nc(-c3ccncc3)cc(=O)n2C)C1 (stereo not shown) [Example 206, Methyl 3-[(1-methyl-6-oxo-4-pyridin-4-yl-16-dihydropyrimidin-2-yl)amino]azepane-1-carboxylate] | 94
COC(=O)N1C[C@H](Nc2nc(-c3ccncc3)cc(=O)n2C)[C@@H](F)C1 [Example 207, Methyl (3S,4S)-3-fluoro-4-[(1-methyl-6-oxo-4-pyridin-4-yl-l6-dihydropyrimidin-2-yl)amino]pyrrolidine-1-carboxylate] | 74
COC(=O)N1CCC(Nc2nc(-c3ccncc3)cc(=O)n2C)CC1 [Example 208, Methyl 4-[(1-methyl-6-oxo-4-pyridin-4-yl-16-dihydropyrimidin-2-yl)amino]piperidine-1-carboxylate] | 77
COC(=O)N1CC(Nc2nc(-c3ccncc3)cc(=O)n2C)C1 [Example 209, Methyl 3-[(1-methyl-6-oxo-4-pyridin-4-yl-16-dihydropyrimidin-2-yl)amino]azetidine-1-carboxylate] | 80
COC(=O)N1CCCC(Nc2nc(-c3ccncc3)cc(=O)n2C)C1 (stereo not shown) [Example 210, Methyl 3-[(1-methyl-6-oxo-4-pyridin-4-yl-16-dihydropyrimidin-2-yl)amino]piperidine-1-carboxylate] | 99
COC(=O)N1C[C@H](F)[C@H](Nc2nc(-c3ccncc3)cc(=O)n2C)C1 [Example 211, Methyl (3S,4R)-3-fluoro-4-[(1-methyl-6-oxo-4-pyridin-4-yl-16-dihydropyrimidin-2-yl)amino]pyrrolidine-1-carboxylate] | 67
COC(=O)N1CCC(N(C)c2nc(-c3ccncc3)cc(=O)n2C)C1 (stereo not shown) [Example 213, Methyl 3-[methyl(1-methyl-6-oxo-4-pyridin-4-yl-16-dihydropyrimidin-2-yl)amino]pyrrolidine-1-carboxylate] | 95
CCN(c1nc(-c2ccncc2)cc(=O)n1C)C1CCCN(C(=O)OC)CC1 (stereo not shown) [Example 215, Methyl 4-[ethyl(1-methyl-6-oxo-4-pyridin-4-yl-16-dihydropyrimidin-2-yl)amino]azepane-1-carboxylate] | 93
COC(=O)N1CC[C@@]2(C)C[C@H](N(C)c3nc(-c4ccncc4)cc(=O)n3C)CC[C@@H]12 [Example 216, Methyl (3a,S5,R7,aR)-3a-methyl-5-[methyl(1-methyl-6-oxo-4-pyridin-4-yl-16-dihydropyrimidin-2-yl)amino]octahydro-1H-indole-1-carboxylate] | 88
